From US20230085307A1, “PYRIDAZINONE COMPOUND AND HERBICIDE” (NISSAN CHEMICAL CORPORATION, priority 2019, published 2023)

Columns and labels:
lambsquarters [1] = test: Test Example 4: herbicidal effect by soil treatment (Table 19, symbol O); type: in vivo, lambsquarters (Chenopodium album); conditions: AAH 320 g/ha
Outline: (§1)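 Step 1: sow seeds in sterilized diluvial soil, cover ~1.5 cm. Step 2: spray diluted emulsion onto soil surface at predetermined rate. Step 3: greenhouse, 25–30° C, three weeks. Step 4: grade effect on each plant by earlier criteria.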

Chinese sprangletop = test: Test Example 3: herbicidal effect by foliage application, Wagner pot (Table 18, symbol D); type: in vivo, chinese sprangletop (Leptochloa chinensis); conditions: 320 g/ha
Outline: (§2)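 Plants were sown in alluvial soil held under 0.1–0.5 cm standing water and grown 14 days in a greenhouse at 25–30 °C. An emulsifiable formulation, water-diluted to the set dose, was then sprayed onto the foliage, and effects were scored three weeks later using previously defined criteria.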

southern crabgrass = test: Test Example 4: herbicidal effect by soil treatment (Table 19, symbol F); type: in vivo, southern crabgrass (Digitaria ciliaris); conditions: AAH 320 g/ha
Outline: as §1

blackgrass [2] = test: Test Example 5: herbicidal effect by foliage application, plastic box (Table 20, symbol J); type: in vivo, blackgrass (Alopecurus myosuroides); conditions: foliage application, AAH 320 g/ha, three weeks after application
Outline: (§3)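 Foliar spray test: emulsion formulation diluted in water to a set application rate, sprayed onto 14-day-old plants raised in diluvial soil at 25° C to 30° C under glass. Both herbicidal effect and crop effect rated visually three weeks later.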

barnyard grass = test: Test Example 3: herbicidal effect by foliage application, Wagner pot (Table 18, symbol H); type: in vivo, barnyard grass (Echinochloa crus-galli); conditions: 320 g/ha
Outline: as §2

persian speedwell = test: Test Example 4: herbicidal effect by soil treatment (Table 19, symbol R); type: in vivo, Persian speedwell (Veronica persica); conditions: AAH 320 g/ha
Outline: as §1

late watergrass [3] = test: Test Example 2: herbicidal activity, application during weed generation under submerged conditions (Table 17, symbol A); type: in vivo, late watergrass (Echinochloa oryzicola); conditions: AAH 320 g/ha; application during weed generation, submerged conditions
Outline: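 3-wk visual-criteria score after one water-surface dose. Emulsion formulation, water-diluted to set rate; applied at 1–2 leaf stage; alluvial soil, 4 cm standing water; seeds co-sown; greenhouse 25–30° C.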

velvetleaf [4] = test: Test Example 5: herbicidal effect by foliage application, plastic box (Table 20, symbol M); type: in vivo, velvetleaf (Abutilon theophrasti); conditions: foliage application, AAH 320 g/ha, three weeks after application
Outline: as §3

blackgrass [5] = test: Test Example 4: herbicidal effect by soil treatment (Table 19, symbol J); type: in vivo, blackgrass (Alopecurus myosuroides); conditions: AAH 320 g/ha
Outline: as §1

Italian ryegrass [6] = test: Test Example 5: herbicidal effect by foliage application, plastic box (Table 20, symbol K); type: in vivo, Italian ryegrass (Lolium multiflorum); conditions: foliage application, AAH 320 g/ha, three weeks after application
Outline: as §3

lambsquarters [7] = test: Test Example 5: herbicidal effect by foliage application, plastic box (Table 20, symbol O); type: in vivo, lambsquarters (Chenopodium album); conditions: foliage application, AAH 320 g/ha, three weeks after application
Outline: as §3

late watergrass [8] = test: Test Example 1: herbicidal activity, application before weed generation under submerged conditions (Table 16, symbol A); type: in vivo, late watergrass (Echinochloa oryzicola); conditions: 320 g/ha applied herbicide
Outline: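 Alluvial soil was flooded to 4 cm depth, weed seeds were sown mixed and 2.5-leaf rice seedlings were transplanted. On sowing day, the compound's emulsion, diluted in water to a set dose, was applied to the water surface. Plants grew at 25–30 °C and were scored 0–5 after three weeks.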

redroot pigweed = test: Test Example 5: herbicidal effect by foliage application, plastic box (Table 20, symbol N); type: in vivo, redroot pigweed (Amaranthus retroflexus); conditions: foliage application, AAH 320 g/ha, three weeks after application
Outline: as §3

velvetleaf [9] = test: Test Example 4: herbicidal effect by soil treatment (Table 19, symbol M); type: in vivo, velvetleaf (Abutilon theophrasti); conditions: AAH 320 g/ha
Outline: as §1

Italian ryegrass [10] = test: Test Example 4: herbicidal effect by soil treatment (Table 19, symbol K); type: in vivo, Italian ryegrass (Lolium multiflorum); conditions: AAH 320 g/ha
Outline: as §1

windgrass = test: Test Example 4: herbicidal effect by soil treatment (Table 19, symbol L); type: in vivo, windgrass (Apera spica-venti); conditions: AAH 320 g/ha
Outline: as §1

| SMILES | O: lambsquarters, herbicidal effect rating (lambsquarters [1]) | herbicidal effect on D (Chinese sprangletop), rating 0-5 (Chinese sprangletop) | F: southern crabgrass, herbicidal effect rating (southern crabgrass) | J: blackgrass, herbicidal effect (blackgrass [2]) | herbicidal effect on H (barnyard grass), rating 0-5 (barnyard grass) | R: persian speedwell, herbicidal effect rating (persian speedwell) | herbicidal effect rating, A: late watergrass (late watergrass [3]) | M: velvetleaf, herbicidal effect (velvetleaf [4]) | J: blackgrass, herbicidal effect rating (blackgrass [5]) | K: Italian ryegrass, herbicidal effect (Italian ryegrass [6]) | O: lambsquarters, herbicidal effect (lambsquarters [7]) | Herbicidal effect on A: late watergrass (grade 0-5) (late watergrass [8]) | N: redroot pigweed, herbicidal effect (redroot pigweed) | M: velvetleaf, herbicidal effect rating (velvetleaf [9]) | K: Italian ryegrass, herbicidal effect rating (Italian ryegrass [10]) | L: windgrass, herbicidal effect rating (windgrass) |
| --- | --- | --- | --- | --- | --- | --- | --- | --- | --- | --- | --- | --- | --- | --- | --- | --- |
| Cc1nn(C)c(=O)c(-c2c(-c3ccc(OCC4CC4(F)F)cc3)sc3ccccc23)c1O (centres unmarked) [1-138] | 5 (Herbicidal rate of 90% or more (almost completely withered)) | 3 (Herbicidal rate of 40% or more and less than 70%) | 0 (Herbicidal rate of 5% or less (almost no effect)) | 5 (Herbicidal rate of 90% or more (almost completely withered)) | 5 (Herbicidal rate of 90% or more (almost completely withered)) | 5 (Herbicidal rate of 90% or more (almost completely withered)) | 0 (Herbicidal rate of 5% or less (almost no effect)) | 4 (Herbicidal rate of 70% or more and less than 90%) | 3 (Herbicidal rate of 40% or more and less than 70%) | 5 (Herbicidal rate of 90% or more (almost completely withered)) | 4 (Herbicidal rate of 70% or more and less than 90%) | 3 (Herbicidal rate of 40% or more and less than 70%) | 3 (Herbicidal rate of 40% or more and less than 70%) | 3 (Herbicidal rate of 40% or more and less than 70%) | 5 (Herbicidal rate of 90% or more (almost completely withered)) | 0 (Herbicidal rate of 5% or less (almost no effect)) |
| CSCCOc1ccc(-c2sc3ccccc3c2-c2c(O)c(C)nn(C)c2=O)cc1 [1-141] | 5 (Herbicidal rate of 90% or more (almost completely withered)) | 3 (Herbicidal rate of 40% or more and less than 70%) | 4 (Herbicidal rate of 70% or more and less than 90%) | 5 (Herbicidal rate of 90% or more (almost completely withered)) | 5 (Herbicidal rate of 90% or more (almost completely withered)) | 5 (Herbicidal rate of 90% or more (almost completely withered)) | 0 (Herbicidal rate of 5% or less (almost no effect)) | 4 (Herbicidal rate of 70% or more and less than 90%) | 0 (Herbicidal rate of 5% or less (almost no effect)) | 5 (Herbicidal rate of 90% or more (almost completely withered)) | 5 (Herbicidal rate of 90% or more (almost completely withered)) | 3 (Herbicidal rate of 40% or more and less than 70%) | 5 (Herbicidal rate of 90% or more (almost completely withered)) | 4 (Herbicidal rate of 70% or more and less than 90%) | 5 (Herbicidal rate of 90% or more (almost completely withered)) | 3 (Herbicidal rate of 40% or more and less than 70%) |
